Like-named read-outs stand apart in the source and are kept apart here.
How the values were obtained:
CYP2B6 = molecular target: T1, CYP2B6 (Homo sapiens, UniProt P20813); experiment: In vitro CYP substrate assessment (victim potential); format: in vitro ADME
T1 sequence (P20813 1-491): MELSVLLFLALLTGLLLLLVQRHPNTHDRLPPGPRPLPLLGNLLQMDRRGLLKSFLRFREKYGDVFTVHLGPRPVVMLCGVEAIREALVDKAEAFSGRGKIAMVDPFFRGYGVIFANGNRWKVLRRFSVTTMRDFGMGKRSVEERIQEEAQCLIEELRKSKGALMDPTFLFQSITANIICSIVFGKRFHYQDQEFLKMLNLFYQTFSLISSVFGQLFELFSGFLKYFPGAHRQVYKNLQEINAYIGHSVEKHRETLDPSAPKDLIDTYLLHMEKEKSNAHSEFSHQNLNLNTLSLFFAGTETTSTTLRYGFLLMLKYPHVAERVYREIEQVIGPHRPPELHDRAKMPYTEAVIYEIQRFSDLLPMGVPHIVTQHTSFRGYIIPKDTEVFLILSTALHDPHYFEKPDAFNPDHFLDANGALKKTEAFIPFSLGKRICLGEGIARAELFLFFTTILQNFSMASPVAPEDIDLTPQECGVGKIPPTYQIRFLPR

OATP1B3 = molecular target: T2, OATP1B3 (Homo sapiens, UniProt Q9NPD5); experiment: In vitro transporter substrate assessment; format: in vitro ADME
T2 construct: expressed in transfected cells; host or cells: HEK293
T2 sequence (Q9NPD5 1-702): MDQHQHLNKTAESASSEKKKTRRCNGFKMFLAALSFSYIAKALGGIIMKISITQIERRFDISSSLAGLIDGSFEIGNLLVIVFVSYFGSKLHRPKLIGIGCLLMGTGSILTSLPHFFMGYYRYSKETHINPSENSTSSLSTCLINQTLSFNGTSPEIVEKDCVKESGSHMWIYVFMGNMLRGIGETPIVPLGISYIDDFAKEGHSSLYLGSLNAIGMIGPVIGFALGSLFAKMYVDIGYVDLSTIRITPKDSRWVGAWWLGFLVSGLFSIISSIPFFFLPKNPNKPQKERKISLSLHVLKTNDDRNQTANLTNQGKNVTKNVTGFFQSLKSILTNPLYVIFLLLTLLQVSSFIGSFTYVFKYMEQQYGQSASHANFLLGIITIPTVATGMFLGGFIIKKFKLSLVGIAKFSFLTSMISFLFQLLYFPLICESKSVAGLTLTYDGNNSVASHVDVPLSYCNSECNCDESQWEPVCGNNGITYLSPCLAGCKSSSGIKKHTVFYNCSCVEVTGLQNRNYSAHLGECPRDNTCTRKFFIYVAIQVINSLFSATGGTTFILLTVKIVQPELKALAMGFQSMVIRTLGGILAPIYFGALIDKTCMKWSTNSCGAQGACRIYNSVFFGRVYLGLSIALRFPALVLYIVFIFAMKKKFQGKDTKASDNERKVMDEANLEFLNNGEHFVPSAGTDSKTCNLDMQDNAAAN
From the text: Consequently, the elimination of rodatristat into bile may be impacted by co-administration with agents that are BCRP inhibitors.

[1] = Clinical pharmacokinetics in healthy subjects (Studies RVT-1201-1001 and KAR5585-101); format: in vivo, human
Experimental: Clinical Study RVT-1201-1001 was a single and repeat dose study of RVT-1201 in healthy subjects to evaluate the pharmacokinetic profile of RVT-1201 and its active metabolite KAR5417. In Part 1 of this study, a single oral dose of 400 mg RVT-120 was administered as an oral powder in Regimen A and B, and as immediate release tablets in Regimen C, to 9 healthy male subjects. In addition, a single 1200 mg dose as immediate release tablets was administered in Regimen D.
Following oral administration in the fed state, RVT-1201 was well absorbed and peak plasma levels were achieved after a median time of 2.5 h. […] The planned clinical dose schedule of RVT-1201 in ELEVATE2 is up to 600 mg BID. […] The geometric mean apparent clearance was 900 L/h after oral administration in Regimen C of Clinical Study RVT-1201-1001. Elimination of RVT-1201 was rapid, and primarily facilitated by hydrolysis to KAR5417. Formation of KAR5417 was attributed to de-esterification of RVT-1201.
KAR5417 is rapidly formed after oral administration of RVT-1201.
Data from two clinical studies were used to verify the PBPK model (Clinical Study KAR5585-101 and Clinical Study RVT-1201-1001). Clinical Study KAR5585-101 was a randomized, double blind, placebo-controlled, Phase 1, first-in-human study to characterize the pharmacokinetics of single and multiple ascending doses of RVT-1201 in healthy subjects. RVT-1201 and KAR5417 plasma concentration data on Day 1, 7 and 14 of 400 mg BID administration in fed subjects were used to support verification of the PBPK model. In addition, multiple dose RVT-1201 and KAR5417 plasma concentration data on Day 1, 7 and 14 of 400 mg or 800 mg BID administration in fed subjects in Clinical Study RVT-1201-1001 were also used to support model verification.

[2] = Predicted plasma Cmax for 600 mg rodatristat ethyl BID (ELEVATE1/ELEVATE2); set-up: species or system human; details: for Unbound Cmax: 600 mg BID, conservative 1% free fraction; for Predicted mean maximum plasma concentration (Cmax) / Cmax: 600 mg rodatristat ethyl BID, plasma; for Cmax: read-out: Predicted mean maximum plasma concentration (Cmax)
Experimental: The potential for rodatristat ethyl or rodatristat to be perpetrators of drug-drug interactions was assessed across in vitro CYP and transporter studies (Tables 1-4). […] This analysis was performed to assess the potential for clinically meaningful DDIs as recommended in FDA Draft Guidance: “In Vitro Metabolism- and Transporter-Mediated Drug-Drug Interaction Studies Guidance for Industry”; October 2017 (FDA, 2017).
R1 and R3 values using free (non-protein bound) drug levels were calculated based on plasma protein binding (fraction bound, fb) of rodatristat ethyl (0.995) and rodatristat (0.991). The FDA Guidance is set forth In Vitro Metabolism- and Transporter-Mediated Drug-Drug Interaction Studies Guidance for Industry (2017). […] Parameters for the prediction are set forth below in Tables 5 and 6.

Row | SMILES | In vitro substrate? CYP2B6 (CYP2B6) | In vitro substrate? OATP1B3 (OATP1B3) | half-life ([1]; human, plasma, oral, 400 mg BID dosing, read-out: Average geometric mean plasma terminal t1/2 (converted)) | Geometric mean apparent clearance ([1]; oral, Regimen C (400 mg single dose, fed)) | Median time to peak plasma levels ([1]; oral, fed state, healthy subjects) | Accumulation after multiple dosing ([1]; twice daily schedule, up to 600 mg BID, expected) | Unbound Cmax [2] | Predicted mean maximum plasma concentration (Cmax) [2] | Cmax [2] | Accumulation by OATP1B3 uptake transporter (OATP1B3; 3 μM) | Cmax greater than the Cmax of RVT-1201 ([1]; Regimen C, 400 mg single dose of RVT-1201) | half-life ([1]; male, human, plasma, 400 mg, after oral RVT-1201, Regimen C, read-out: Geometric mean plasma terminal t1/2 (converted)) | Cmax ([1]; male, human, plasma, oral, Regimen C, 400 mg single dose of RVT-1201, read-out: Geometric mean Cmax) | Tmax ([1]; male, human, plasma, oral, Regimen C, 400 mg single dose of RVT-1201, read-out: Median Tmax) | Unbound Cmax ([2]; listed as rodatristat)
1 | CCOC(=O)[C@@H]1CC2(CCN(c3cc(O[C@H](c4ccc(Cl)cc4-c4ccccc4)C(F)(F)F)nc(N)n3)CC2)CN1 [Rodatristat ethyl, (S)-ethyl 8-(2-amino-6-((R)-1-(5-chloro-[1,1′-biphenyl]-2-yl)-2,2,2-trifluoroethoxy)pyrimidin-4-yl)-2,8-diazaspiro[4.5]decane-3-carboxylate] | No | not a substrate and No | 312 min | 900 L/h | 2.5 h | < 1.5 fold | 0.0025 µM | 149 ng/mL | 252 nM |  |  |  |  |  | 
2 | Nc1nc(O[C@H](c2ccc(Cl)cc2-c2ccccc2)C(F)(F)F)cc(N2CCC3(CC2)CN[C@H](C(=O)O)C3)n1 [Rodatristat, (S)-8-(2-amino-6-((R)-1-(5-chloro-[1,1′-biphenyl]-2-yl)-2,2,2-trifluoroeth-oxy)pyrimidin-4-yl)-2,8-diazaspiro[4.5]decane-3-carboxylic acid] | No | is an in vitro substrate and Yes |  |  |  |  | 0.02 µM | 1130 ng/mL | 2010 nM | 9.28 fold | approximately 5 fold | 738 min | 517 ng/mL | 3.5 h | 0.0201 µM
